What is called IC50 is the concentration that inhibits the measured activity by half. A lower IC50 goes with greater potency in that assay.

The subject of assay [1] is MCF7. Put plainly: Antiproliferative activity against human MCF7 cells after 72 hrs by MTT assay. The assay is classed as functional, cell-based. Conditions: MCF7, 72 h. A general note: Formazan colour is commonly taken as a measure of viable cells.
The test system of the next assay is MDA-MB-231. Description: Antiproliferative activity against human MDA231 cells after 72 hrs by MTT assay. The assay is classed as functional, cell-based. The settings on record: MDA-MB-231, 72 h.
The target in another assay is MAP kinase p38 (Homo sapiens, UniProt O15264+Q15759+Q16539+P53778). Put plainly: Inhibition of p38alpha MAPK (unknown origin) using ATF-2 as substrate after 1 hr by ELISA. Format: protein assay. Background: In an ELISA, binding on a coated surface is turned into a signal by an enzyme label.
Assay [2] has as its system MCF7. Put plainly: Induction of apoptosis in human MCF7 cells assessed as early apoptotic cells after 48 hrs by Annexin V-FITC/propidium iodide staining-based flow cytometric analysis (reference value: 0.85%). The assay is classed as functional. (In general: In flow cytometry, cells or beads pass a laser one at a time.)
Assay [3] deals with MCF7. Description: Induction of apoptosis in human MCF7 cells assessed as late apoptotic cells after 48 hrs by Annexin V-FITC/propidium iodide staining-based flow cytometric analysis (reference value: 0.52%). The assay is classed as functional.
Assay [4] has as its system MCF7. Put plainly: Induction of apoptosis in human MCF7 cells assessed as necrotic cells after 48 hrs by Annexin V-FITC/propidium iodide staining-based flow cytometric analysis (reference value: 0.34%). Format: functional.
For assay [5], the system named is MCF7. Put plainly: Cell cycle arrest in human MCF7 cells assessed as accumulation of cells at preG phase after 48 hrs by propidium iodide staining-based flow cytometric analysis (reference value: 1.71%). Format: functional.
Assay [6] relates to MCF7. Put plainly: Cell cycle arrest in human MCF7 cells assessed as accumulation of cells at G1 phase after 48 hrs by propidium iodide staining-based flow cytometric analysis (reference value: 53.94%). Format: functional.
In assay [7] the test system is MCF7. Description: Cell cycle arrest in human MCF7 cells assessed as accumulation of cells at G2/M phase after 48 hrs by propidium iodide staining-based flow cytometric analysis (reference value: 6.68%). Format: functional.
Assay [8] relates to MCF7. Description: Cell cycle arrest in human MCF7 cells assessed as accumulation of cells at S phase after 48 hrs by propidium iodide staining-based flow cytometric analysis (reference value: 39.38%). Format: functional.
Assay [9] relates to MCF7. Description: Induction of apoptosis in human MCF7 cells assessed as increase in caspase-7 activity by ELISA. Format: functional, cell-based.
The test system of assay [10] is MCF7. Description: Induction of apoptosis in human MCF7 cells assessed as increase in caspase-7 mRNA expression after 48 hrs by RT-PCR analysis. The assay is classed as functional, cell-based.

Activity calls are given as the source filed them. No cut-off for these calls is given here.

On to `COc1c(-c2cc(-c3ccc(C)o3)[nH]c(=S)n2)c(O)c(CN2CCCCC2)c2occc12`, for which the IC50 in the assay with MCF7 [1] and in the assay on MDA-MB-231 was > 100 µM in each case.

Turning to `Cc1cc(=O)c2c(OCc3nnc(SCCN4CCOCC4)o3)c3ccoc3cc2o1`, the concentration for half-maximal inhibition (IC50) in the assay on MCF7 [1] was determined as 3.82 µM; with MDA-MB-231, 8.74 µM.

In the case of `COc1c(C(=O)/C=C/c2ccc(C)o2)c(O)c(CN2CCOCC2)c2occc12`, the concentration for half-maximal inhibition (IC50) with MCF7 [1] and in the assay on MDA-MB-231 was > 100 µM in each case.

In the case of `Cc1cc(C)n(C(=O)COc2c3ccoc3cc3oc(C)cc(=O)c23)n1`, the figures for the IC50 in the assay with MCF7 [1] and in the assay with MDA-MB-231 were 2.5 µM and > 100 µM, respectively.

Turning to `COc1c(C(=O)/C=C/c2ccc(C)o2)c(O)c(CN2CCN(C)CC2)c2occc12`, the IC50 with MCF7 [1] is 4.86 µM; with MDA-MB-231, > 100 µM.

In the case of `CS(=O)(=O)CCNCc1ccc(-c2ccc3ncnc(Nc4ccc(OCc5cccc(F)c5)c(Cl)c4)c3c2)o1` [LAPATINIB], the IC50 in the assay with MCF7 [1] and with MDA-MB-231 was 4.69 µM in each case.

On to `Cc1cc(=O)c2c(OCC(=O)NNC(=S)Nc3ccccc3)c3ccoc3cc2o1`, for which the IC50 was 2.44 µM in the assay on MCF7 [1] and > 100 µM in the assay on MDA-MB-231.

As for `COc1c(C(=O)/C=C/c2ccc(C)o2)c(O)c(Br)c2occc12`, the IC50 in the assay on MCF7 [1] was determined as 1.36 µM; in the assay on MDA-MB-231 it was 2.1 µM; against MAP kinase p38, 0.041 µM.

As to `COc1c(-c2cc(-c3ccc(C)o3)[nH]c(=S)n2)c(O)c(Br)c2occc12`, the concentration for half-maximal inhibition (IC50) with MCF7 [1] amounted to 1.51 µM; in the assay on MDA-MB-231 it was 2 µM.

`Cc1cc(=O)c2c(OCc3nnc(S)s3)c3ccoc3cc2o1`: the IC50 in the assay on MCF7 [1] turned out to be 1.65 µM; in the assay with MDA-MB-231, 7.07 µM.

As for `COc1c(C(=O)/C=C/c2ccc(C)o2)c(O)c(CN2CCCCC2)c2occc12`, the 50% inhibitory concentration (IC50) in the assay with MCF7 [1] and in the assay on MDA-MB-231 was > 100 µM each time.

Turning to `COc1c(-c2cc(-c3ccc(C)o3)[nH]c(=O)n2)c(O)c(Br)c2occc12`, the IC50 in the assay on MCF7 [1] came to 1.94 µM; in the assay with MDA-MB-231, 1.23 µM.

Regarding `Cc1cc(=O)c2c(OCc3nnc(SCCN4CCOCC4)s3)c3ccoc3cc2o1`, the concentration for half-maximal inhibition (IC50) in the assay with MCF7 [1] was 2.78 µM; in the assay on MDA-MB-231 it was > 100 µM.

For `COc1c(-c2cc(-c3ccc(C)o3)[nH]c(=S)n2)c(O)c(CN2CCOCC2)c2occc12`, the figures for the IC50 with MCF7 [1] and in the assay with MDA-MB-231 were 7.14 µM and > 100 µM, respectively.

With `COc1c(-c2cc(-c3ccc(C)o3)[nH]c(=S)n2)c(O)c(CN2CCN(C)CC2)c2occc12`, the results for the IC50 in the assay on MCF7 [1] and with MDA-MB-231 were 5.81 µM and > 100 µM, respectively.

Take `Cc1cc(=O)c2c(OCc3nnc(S)o3)c3ccoc3cc2o1`: the IC50 is 13.2 µM in the assay with MCF7 [1] and 12.4 µM in the assay on MDA-MB-231.

Consider `COc1c(-c2cc(-c3ccc(C)o3)c(C#N)c(N)n2)c(O)c(Br)c2occc12`, for which the values for the IC50 in the assay with MCF7 [1], with MDA-MB-231 and at MAP kinase p38 were 1.19 µM, 2.65 µM and 0.04 µM, respectively. Besides, the Activity in the assay on MCF7 [2] came out at 5.36%; with MCF7 [3], 9.2%; with MCF7 [4], 2.13%; with MCF7 [5], 16.69%; with MCF7 [6], 41.56%; in the assay on MCF7 [7], 23.63%. Also, the Activity in the assay with MCF7 [8] is listed as 34.81%. Besides, the result in the assay with MCF7 [9] and in the assay with MCF7 [10] was Active.

Values taken from ChEMBL document CHEMBL4480419, “Design and molecular modeling of novel P38α MAPK inhibitors targeting breast cancer, synthesized from oxygen heterocyclic natural compounds” (Bioorg Med Chem, 2019).
